Molecules are shown by their SMILES. Activity calls are given as the source filed them. The rule behind the calls is not given here.

Experiment [1] relates to Cricetinae gen. sp. As to the kind of experiment: Compound was tested for the change in liver cholesterol (CE) levels in hamster. The experiment is classed as functional, Cricetulus griseus.
The species entered for experiment [2] is Homo sapiens. As to the kind of experiment: Compound was tested for the reduction in high density lipoprotein cholesterol. The format is functional.
Experiment [3] is filed under the species Homo sapiens. As to the kind of experiment: Compound was tested for the reduction in low density lipoprotein cholesterol. The format is functional.
The species named for the next experiment is Canis familiaris. As to the kind of experiment: Compound was tested for the change in serum cholesterol (SC) levels in cholesterol fed dog. The experiment is classed as functional. As to conditions: Canis lupus familiaris.
A further experiment is filed under the species Rattus norvegicus. Kind of experiment: Compound was tested for the change in serum cholesterol (SC) level in cholesterol fed rat. The experiment is classed as functional.
Experiment [4] is filed under the species Homo sapiens. Kind of experiment: Compound was tested for the reduction in triglycerides. The format is functional.
The subject of the next experiment is Monkey. As to the kind of experiment: Compound was tested for the change in serum cholesterol (SC) levels in cholesterol fed monkey. The settings on record: Cercopithecidae, in Primates. The experiment is classed as functional.
The species named for experiment [5] is Homo sapiens. As to the kind of experiment: Compound was tested for the reduction in total cholesterol. The experiment is classed as functional.
Experiment [6] has as its target T1, Sterol O-acyltransferase 1 (Cricetulus griseus) (UniProt Q60457).
T1 sequence (whole entry): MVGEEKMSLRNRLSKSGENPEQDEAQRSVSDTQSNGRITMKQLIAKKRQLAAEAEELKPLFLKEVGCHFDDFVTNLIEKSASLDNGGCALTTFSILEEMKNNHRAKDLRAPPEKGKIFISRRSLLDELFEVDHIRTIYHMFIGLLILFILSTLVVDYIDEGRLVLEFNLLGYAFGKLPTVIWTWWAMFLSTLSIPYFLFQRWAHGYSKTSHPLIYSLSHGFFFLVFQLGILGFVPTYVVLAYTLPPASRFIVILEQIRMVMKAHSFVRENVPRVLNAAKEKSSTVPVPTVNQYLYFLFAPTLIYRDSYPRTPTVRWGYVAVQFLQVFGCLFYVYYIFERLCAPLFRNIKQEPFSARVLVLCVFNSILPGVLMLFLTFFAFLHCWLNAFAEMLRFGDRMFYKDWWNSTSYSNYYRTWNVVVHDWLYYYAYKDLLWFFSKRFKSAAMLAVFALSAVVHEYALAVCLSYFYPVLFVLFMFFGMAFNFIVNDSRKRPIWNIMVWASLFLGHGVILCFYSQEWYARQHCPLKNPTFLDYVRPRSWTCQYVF
As to the kind of experiment: Compound was tested for the change in serum cholesterol (SC) levels by the inhibition of ACAT in hamster at 50 mg/kg p.o.; NE=No effect. On the set-up: dose 50 mg/kg. The experiment is classed as functional, organism-based.

Experiment [7] addresses T1, Sterol O-acyltransferase 1 (Cricetulus griseus). Kind of experiment: Compound was tested for the change in liver cholesteryl ester (CE) levels by the inhibition of ACAT in hamster at 50 mg/kg p.o.; NE=No effect. The experiment is classed as functional, organism-based. On the set-up: dose 50 mg/kg.
Experiment [8] has the same target. As to the kind of experiment: Compound was tested for the change in serum cholesterol (SC) levels by the inhibition of ACAT in hamster at 50 mg/kg p.o. Also noted: dose 50 mg/kg. The format is functional, organism-based.
The target is the same in experiment [9]. As to the kind of experiment: Compound was tested for the change in liver cholesteryl ester (CE) levels by the inhibition of ACAT in hamster at 50 mg/kg p.o. Also noted: dose 50 mg/kg. The experiment is classed as functional, organism-based.
Experiment [10] concerns Cricetinae gen. sp. Kind of experiment: Compound was tested for the change in liver cholesterol (CE) levels in hamsters. The format is functional, Cricetulus griseus.

Consider `CC(=O)c1ccc([C@@H]2[C@@H](CCC(=O)c3ccccc3)C(=O)N2c2ccc(C(C)=O)cc2)cc1`, for which the 50% effective dose (ED50) in the experiment on Cricetinae gen. sp. [1] was determined as 1.9 mg/kg.
As for `O=C1[C@H](CC[C@H](O)c2ccc(F)cc2)[C@@H](c2ccc(O)cc2)N1c1ccc(F)cc1` [EZETIMIBE], the ED50 in the experiment with Cricetinae gen. sp. [1] was found to be 0.04 mg/kg; in the experiment filed under Canis familiaris it was 0.007 mg/kg; in the experiment filed under Rattus norvegicus, 0.03 mg/kg; in the experiment on Monkey, 0.0005 mg/kg. The Mean in the experiment filed under Homo sapiens [2] is 1.3%; in the experiment filed under Homo sapiens [3], -16.9%; in the experiment listed under Homo sapiens [4], -5.7%; in the experiment listed under Homo sapiens [5] it was -12.5%.
For `COc1ccc([C@@H]2[C@@H](/C=C/Cc3ccccc3)C(=O)N2c2ccc(OC)cc2)cc1`, the Change in cholesterol result in experiment [6] and in experiment [7] was “inactive” in each case.
Regarding `COc1ccc([C@@H]2N(c3ccccc3)C(=O)C23CCC(c2ccc(Cl)cc2)CC3)cc1` (stereo in doubt; 17) [listing 1 of 2 here], the Change in cholesterol was -46% in experiment [8] and -97% in [9].
For the molecule `COc1ccc([C@@H]2[C@@H](/C=C\Cc3ccccc3)C(=O)N2c2ccc(OC)cc2)cc1`, the Change in cholesterol was -20% in [8] and -73% in experiment [9].
The matching figures for `COc1ccc([C@@H]2N(c3ccccc3)C(=O)C23CCC(c2ccc(Cl)cc2)CC3)cc1` (stereo in doubt; 18): “No effect” and “No effect”.
With `O=Cc1ccc([C@@H]2[C@@H](CCCc3ccc(O)cc3)C(=O)N2c2ccc(C=O)cc2)cc1`, the Change in cholesterol in experiment [9] was -78%.
`O=Cc1ccc([C@@H]2[C@@H](CC[C@@H](O)c3ccccc3)C(=O)N2c2ccc(C=O)cc2)cc1` yielded an ED50 with Cricetinae gen. sp. [1] of 5 mg/kg.
For `O=Cc1ccc([C@@H]2[C@@H](CC[C@H](O)c3ccccc3)C(=O)N2c2ccc(C=O)cc2)cc1`, the ED50 in the experiment with Cricetinae gen. sp. [10] came to 0.9 mg/kg.
The same measure, in the same setting: under `COc1ccc([C@@H]2N(c3ccccc3)C(=O)C23CCC(c2ccc(Cl)cc2)CC3)cc1` (stereo in doubt; 17) [listing 2 of 2 here] stands 0.66 mg/kg.
As for `O=C1[C@H](CCCc2ccccc2)[C@@H](c2ccc(O)cc2)N1c1ccc(O)cc1`, in experiment [9], the Change in cholesterol is -78%.
The same measure, in the same setting: under `O=Cc1ccc([C@@H]2[C@@H](CCCc3ccccc3)C(=O)N2c2ccc(O)cc2)cc1` stands -68%.

For the origin of these results see ChEMBL document CHEMBL1139451, “The discovery of ezetimibe: a view from outside the receptor” (2004).
